Here are results for one compound from PMC10877733, “Discovery and Characterization of VU0542270, the First Selective Inhibitor of Vascular Kir6.1/SUR2B KATP Channels” (Molecular Pharmacology, 2024).

The nature of the data set: Intrinsic clearance in liver microsomes, rat. The data set is classed as in vitro ADME. The method, then:
The in vitro intrinsic clearance (CLint) of VU0542270 was investigated in commercially obtained hepatic microsomes from rat, mouse, and human donors using the substrate depletion (i.e., loss-of-parent versus time, or t1/2 method) approach with analyte detection via LC-MS/MS. For each species, mean per cent parent remaining values at each time point were calculated from replicates raw data (analyte:IS peak area ratios) and used to determine in vitro t1/2 and CLint.
Experiments were carried out using a robot-assisted liquid handling system (TECAN model Evo 200). VU0542270 was incubated (1 µM final concentration) in buffer (100 mM potassium phosphate, pH 7.4, with 3 mM MgCl2) containing hepatic microsomes (0.5 mg/mL final concentration) from multiple species, discretely, at 37°C under constant orbital shaking. After 5 minutes (preincubation), reactions were initiated by the addition of NADPH (1 mM final concentration). At selected time intervals (0, 3, 7, 15, 25, and 45 minutes) post addition of NADPH, aliquots (50 µL) were taken and placed into a 96-shallow-well plate containing ice-cold acetonitrile (150 µL) with carbamazepine (IS, 50 nM). The plates were then centrifuged (3000 rcf at 4°C) for 10 minutes. […]
Predicted hepatic clearance (CLhep) was calculated using the following equation: [drawing 4] […]
(In general: Microsomes from liver hold many membrane-bound enzymes, among them those of drug oxidation.)

With `Cc1nc(-c2cccs2)sc1CNC(=O)Nc1cccs1` [VU0542270], under “corrected to plasma unbound fraction”, the “Predicted CLhep,u (rat)” value is reported as 6.0 mL/min per kg. In addition, the “Predicted CLhep (rat)” value (from microsomal CLint) was 63 mL/min per kg.
